In patent US7141560B2, “Alanine 2,6-dialkoxyphenyl ester derivatives as hypnotics” (Akzo Nobel N.V., priority 2001, dated 2006):

Tested on: mice
Assay: Hypnotic activity: loss of righting reflex after intravenous injection in mice
Format: in vivo
Details: Mus musculus, intravenous injection over 10 seconds, dose causing loss of righting reflex for minimum 30 seconds in 50% of treated mice, read-out: HD50 (hypnotic dose50)
Description: The hypnotic potency of the alanine 2,6-dialkoxyphenyl ester derivatives of the invention was determined upon their intravenous administration in mice. The dose required to cause a loss of righting reflex for a minimum period of 30 seconds in 50% of treated mice after intravenous injection over 10 seconds was determined. This dose is termed the HD50 (hypnotic dose50) and is expressed in μmol.kg^−1. These in vivo experiments were carried out as described in detail by Anderson et al., J. Med. Chem. 1997, 40, 1668–1681.

Row | SMILES | ED50 [µmol/kg]
1 | CCOCCC(C(=O)Oc1c(OC)cccc1OC)N1CCCCCC1 (stereo not drawn) [Example 10q, 4-Ethoxy-2-[1-hexahydroazepinyl]butyric acid, 2,6-dimethoxyphenyl ester] | 25
2 | CCOCCC(C(=O)Oc1c(OC)cc(C)cc1OC)N1CCOCC1 (stereo not drawn) [Example 10t, 4-Ethoxy-2-[4-morpholinyl]butyric acid, 2,6-dimethoxy-4-methylphenyl ester] | 36
3 | CCOCCC(C(=O)Oc1c(OC)cc(C)cc1OC)N1CCCCCC1 (stereo not drawn) [Example 10u, 4-Ethoxy-2-[1-hexahydroazepinyl]butyric acid, 2,6-dimethoxy-4-methylphenyl ester] | 17
4 | COc1cccc(OC)c1OC(=O)C(CN1CCSCC1)N1CCSCC1 (stereo not drawn) [Example 18a, 2,3-Di-(N-thiomorpholinyl)propanoic acid, 2,6-dimethoxyphenyl ester] | 15
5 | COc1cccc(OC)c1OC(=O)C(CN1CCOCC1)N1CCOCC1 (stereo not drawn) [Example 18c, 2,3-Di-(4-morpholinyl)propanoic acid, 2,6-dimethoxyphenyl ester] | 31
6 | COc1cccc(OC)c1OC(=O)C(CN1CCOCC1)N1CCSCC1 (stereo not drawn) [Example 19a, 3-(4-Morpholinyl)-2-(N-thiomorpholinyl)propanoic acid, 2,6-dimethoxyphenyl ester] | 17
7 | COc1cccc(OC)c1OC(=O)C(CN1CCOCC1)N1CCCCC1 (stereo not drawn) [Example 19g, 3-(4-Morpholinyl)-2-(1-piperidinyl)propanoic acid, 2,6-dimethoxyphenyl ester] | 15
8 | COc1cccc(OC)c1OC(=O)C(CN1CCSCC1)N1CCOCC1 (stereo not drawn) [Example 19i, 2-(4-Morpholinyl)-3-(N-thiomorpholinyl)propanoic acid, 2,6-dimethoxyphenyl ester] | 19
9 | COc1cccc(OC)c1OC(=O)C(CCN1CCOCC1)N1CCOCC1 (stereo not drawn) [Example 21a, 2,4-Di-(4-morpholinyl)butanoic acid, 2,6-dimethoxyphenyl ester] | 50

Same assay, conditions: intravenous injection over 10 seconds, dose causing loss of righting reflex for minimum 30 seconds in 50% of treated mice

Row | SMILES | HD50 (hypnotic dose50) [µmol/kg]
10 | CCOCCC(C(=O)Oc1c(OC)cccc1OC)N1CCCOCC1 (stereo not drawn) [Example 10p, 4-Ethoxy-2-[4-(hexahydro-1-oxazepinyl)]butyric acid, 2,6-dimethoxyphenyl ester] | 23
11 | CCOCCC(C(=O)Oc1c(OC)cccc1OC)N(CCOC)CCOC (stereo not drawn) [Example 10r, 2-[N-(Bis(2-methoxyethyl)amino)]-4-ethoxybutyric acid, 2,6-dimethoxyphenyl ester] | 27
12 | CCOCCC(C(=O)Oc1c(OC)cccc1OC)N(CCOCC)CCOCC (stereo not drawn) [Example 10s, 2-[N-(Bis(2-ethoxyethyl)amino)]-4-ethoxybutyric acid, 2,6-dimethoxyphenyl ester] | 47
13 | CCOCCC(C(=O)Oc1c(OC)cc(C)cc1OC)N1CCCOCC1 (stereo not drawn) [Example 10w, 4-Ethoxy-2-[4-(hexahydro-1-oxazepinyl)]butyric acid, 2,6-dimethoxy-4-methylphenyl ester] | 26
14 | COc1cccc(OC)c1OC(=O)C(CN1CCOC(C)(C)C1)N1CCOC(C)(C)C1 (stereo not drawn) [Example 18b, 2,3-Di-[4-(2,2-dimethylmorpholinyl)]propanoic acid, 2,6-dimethoxyphenyl ester] | 31
15 | COc1cccc(OC)c1OC(=O)C(CN1CCOCC1)N1CCc2ccccc2C1 (stereo not drawn) [Example 19b, 3-(4-Morpholinyl)-2-(1,2,3,4-tetrahydroisoquinoline)propanoic acid, 2,6-dimethoxyphenyl ester] | 29
16 | COc1cccc(OC)c1OC(=O)C(CN1CCOCC1)N1CCSC(C)(C)C1 (stereo not drawn) [Example 19c, 2-[N-(2,2-Dimethylthiomorpholinyl)]-3-(4-morpholinyl)propanoic acid, 2,6-dimethoxyphenyl ester] | 28
17 | COc1cccc(OC)c1OC(=O)C(CN1CCOCC1)N1CCO[C@H](C)C1 (stereo partly drawn) [Example 19d, 2-[(R)-4-(2-Methylmorpholinyl)]-3-(4-morpholinyl)propanoic acid, 2,6-dimethoxyphenyl ester] | 27
18 | CC[C@@H]1CN(C(CN2CCOCC2)C(=O)Oc2c(OC)cccc2OC)CCO1 (stereo partly drawn) [Example 19e, 2-[(R)-4-(2-Ethylmorpholinyl)]-3-(4-morpholinyl)propanoic acid, 2,6-dimethoxyphenyl ester] | 27
19 | CCC1(C)CN(C(CN2CCOCC2)C(=O)Oc2c(OC)cccc2OC)CCO1 (stereo not drawn) [Example 19f, 2-[4-(2-Ethyl-2-methylmorpholinyl)]-3-(4-morpholinyl)propanoic acid, 2,6-dimethoxyphenyl ester] | 21
20 | COc1cccc(OC)c1OC(=O)C(CN1CCOCC1)N1CCOC[C@H]1C(C)C (stereo partly drawn) [Example 19h] | 21
21 | COc1cccc(OC)c1OC(=O)C(CN1CCc2ccccc2C1)N1CCOCC1 (stereo not drawn) [Example 19j, 2-(4-Morpholinyl)-3-(1,2,3,4-tetrahydroisoquinoline)propanoic acid, 2,6-dimethoxyphenyl ester] | 21
22 | COc1cccc(OC)c1OC(=O)C(CN1CC=CCC1)N1CCSCC1 (stereo not drawn) [Example 19k, 3-(1,2,3,6-Tetrahydropyridinyl)-2-(N-thiomorpholinyl)propanoic acid, 2,6-dimethoxyphenyl ester] | 15
23 | CCOc1cccc(OCC)c1OC(=O)C(CN1CCOCC1)N1CCOCC1 (stereo not drawn) [Example 20b, Propanoic acid, 2,3-di(4-morpholinyl), 2,6-diethoxyphenyl ester] | 24
24 | COc1cccc(OC)c1OC(=O)C(CCN1CCOC(C)(C)C1)N1CCOC(C)(C)C1 (stereo not drawn) [Example 21b] | 25
25 | COCCN(CCOC)C(CC(=O)OC)C(=O)Oc1c(OC)cccc1OC (stereo not drawn) [Example 24a, Butanedioic, 2-[N-bis(2-methoxyethyl)amino]-, 1-(2,6-dimethoxyphenyl)ester, 4-methyl ester] | 48
26 | COCCN(CCOC)C(CC(=O)OC)C(=O)Oc1c(OC)cc(C)cc1OC (stereo not drawn) [Example 24b, Butanedioic, 2-[N-bis(2-methoxyethyl)amino]-, 1-(2,6-dimethoxy-4-methylphenyl)ester, 4-methyl ester] | 48
27 | COC(=O)CC(C(=O)Oc1c(OC)cc(C)cc1OC)N1CCOCC1 (stereo not drawn) [Example 26b, Butanedioic, 2-(4-morpholinyl)-, 1-(2,6-dimethoxy-4-methylphenyl)ester, 4-methyl ester] | 46
28 | COC(=O)CC(C(=O)Oc1c(OC)cccc1OC)N1CCCCC1 (stereo not drawn) [Example 28a, Butanedioic, 2-(1-piperidinyl)-, 1-(2,6-dimethoxyphenyl)ester, 4-methyl ester] | 26
29 | COC(=O)CC(C(=O)Oc1c(OC)cc(C)cc1OC)N1CCCCC1 (stereo not drawn) [Example 28b, Butanedioic, 2-(1-piperidinyl)-, 1-(2,6-dimethoxy-4-methylphenyl)ester, 4-methyl ester] | 48
30 | COC(=O)CC(C(=O)Oc1c(OC)cccc1OC)N1CCCCCC1 (stereo not drawn) [Example 30a, Butanedioic, 2-(1-hexahydroazepinyl)-, 1-(2,6-dimethoxyphenyl)ester, 4-methyl ester] | 23
31 | COC(=O)CC(C(=O)Oc1c(OC)cc(C)cc1OC)N1CCCCCC1 (stereo not drawn) [Example 30b, Butanedioic, 2-(1-hexahydroazepinyl)-, 1-(2,6-dimethoxy-4-methyl-phenyl)ester, 4-methyl ester] | 26
32 | CCN(CC)C(=O)CC(C(=O)Oc1c(OC)cc(C)cc1OC)N1CCOCC1 (stereo not drawn) [Example 32a, Butanedioic, 4-(diethylamino)-4-oxo-, 2-(4-morpholinyl)-, 1-(2,6-dimethoxy4-methylphenyl)ester] | 38
33 | COc1cc(C)cc(OC)c1OC(=O)C(CC(=O)N1CCCCC1)N1CCCCC1 (stereo not drawn) [Example 34a, Butanedioic, 4-(1-piperidinyl)-4-oxo-, 2-(1-piperidinyl)-, 1-(2,6-dimethoxy-4-methylphenyl)ester] | 38
34 | COc1cccc(OC)c1OC(=O)C(CC(=O)N1CCCCC1)N1CCCCC1 (stereo not drawn) [Example 34b, Butanedioic, 4-(1-piperidinyl)-4-oxo-, 2-(1-piperidinyl)-1-(2,6-dimethoxyphenyl)ester] | 39
35 | COc1cccc(OC)c1OC(=O)C(CC(=O)N1CCCC1)N1CCCCCC1 (stereo not drawn) [Example 36, Butanedioic, 2-(1-hexahydroazepinyl)-4-oxo-4-(1-pyrrolidinyl)-, 1-(2,6-dimethoxyphenyl)ester] | 34
36 | COc1cc(C)cc(OC)c1OC(=O)C(CCSC)N1CCOCC1 (stereo not drawn) [Example 39a, Butanoic acid, 4-(methylthio)-2-(4-morpholinyl)-, 1-(2,6-dimethoxy-4-methylphenyl)ester] | 35
37 | COc1cc(C)cc(OC)c1OC(=O)C(CCSC)N1CCCC1 (stereo not drawn) [Example 39b, Butanoic acid, 4-(methylthio)-2-(1-pyrrolidinyl)-, 1-(2,6-dimethoxy-4-methylphenyl)ester] | 31
38 | COCCN(CCOC)C(CCSC)C(=O)Oc1c(OC)cc(C)cc1OC (stereo not drawn) [Example 39c, Butanoic acid, 2-[N-bis(2-methoxyethyl)amino]-4-(methylthio), 1-(2,6-dimethoxy-4-methylphenyl)ester] | 23
39 | COc1cccc(OC)c1OC(=O)C(CCSC)N1CCCCC1 (stereo not drawn) [Example 40a, Butanoic acid, 4-(methylthio)-2-(1-piperidinyl)-, 1-(2,6-dimethoxyphenyl)ester] | <26
